From patent US11066447B2, “Aureobasidium derivatives and methods of synthesis” (AureoGen Biosciences, Inc., priority 2016, dated 2021)
Values after ≈ are worked out from the molar mass of the structure shown. Where two headings read alike, the source gives them in different places. Numbered stars: 1 amine (or outer) side, 2 acyl side, 3 side chain; on linkers, the order of the positions; unused ones are H or OH. Square brackets hold non-standard residues; d marks the D form. Peptide text beside a SMILES is read from it. ξ: configuration not given here. X9 = CN1CCN(c2cccc(-c3cccc(C[C@@H](C(=O)[*:2])N(C)[*:1])c3)n2)CC1; NMePhe(3-(3-pyridyl)) = CN[C@@H](Cc1cccc(-c2cccnc2)c1)C(=O)O; X36 = CN([C@@H](Cc1ccc(-c2cccnc2)cc1)C(=O)[*:2])[*:1]; Hmp(2R,3S) = CC[C@H](C)[C@@H](O)C(=O)O; NMeVal(β-OH) = CN[C@H](C(=O)O)C(C)(C)O; X6 = CCC(C)[C@@H](O[*:1])C(=O)[*:2]; ξNMeVal(3-OH) = CNC(C(=O)O)C(C)(C)O; Ile(3ξ) = CCC(C)[C@H](N)C(=O)O; NMeV = CN[C@H](C(=O)O)C(C)C; ξL = CC(C)CC(N)C(=O)O

Tests used:
[1] = test system: C. albicans MMX 2000 ATCC 10231; test: MIC assay (CLSI microdilution); format: cell-based; settings: Candida albicans, ATCC10231, RPMI plus 0.002% Tween-80; read-out: MIC
[2] = test system: C. neoformans MMX 0634 ATCC 90112; test: MIC assay (CLSI microdilution); format: cell-based; settings: Cryptococcus neoformans, ATCC90112, 72 h, 72 hour; RPMI plus 0.002% Tween-80; read-out: MIC
[3] = test system: C. parapsilosis MMX 2323 ATCC 22019; test: MIC assay (CLSI microdilution); format: cell-based, Candida parapsilosis; settings: read-out: MIC
Method in brief: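 Broth microdilution MIC testing of Candida parapsilosis ATCC 22019 followed CLSI methods in RPMI-1640, with or without 0.002% Tween-80. Yeast grown 48 hours at 35° C on Sabouraud dextrose agar was suspended to a 0.5 McFarland standard and diluted 1:100 to roughly 0.5-2.5×10^3 CFU/mL. The MIC was the lowest concentration preventing visible growth.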

A. flavus MMX 5948 = test: MIC/MEC assay (CLSI microdilution); format: cell-based; settings: Aspergillus flavus, MMX5948, 48 h
Method in brief: (§1)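 Test agents were assayed by CLSI broth microdilution in Tween-80-supplemented (0.002%) RPMI-1640 against spore inocula of approximately 0.2-2.5×10^4 CFU/mL. Strain MMX 5280 was run both with and without Tween-80.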

A. fumigatus MMX 5944 = test: MIC/MEC assay (CLSI microdilution); format: cell-based; settings: Aspergillus fumigatus, MMX5944, 48 h
Method in brief: as §1

[4] = test system: A. fumigatus MMX 6781 ATCC MYA-4609; test: MIC/MEC assay (CLSI microdilution); format: cell-based; settings: Aspergillus fumigatus
Method in brief: as §1

[5] = test system: A. fumigatus MMX 6782 ATCC 13073; test: MIC/MEC assay (CLSI microdilution); format: cell-based; settings: Aspergillus fumigatus, ATCC13073, 48 h
Method in brief: as §1

[6] = test system: A. fumigatus from Aureogen; test: MIC/MEC assay (CLSI microdilution); format: cell-based; settings: Aspergillus fumigatus, 48 h
Method in brief: as §1

[7] = test system: A. niger MMX 0624 ATCC 16888; test: MIC/MEC assay (CLSI microdilution); format: cell-based; settings: Aspergillus niger, ATCC16888, 48 h
Method in brief: as §1

[8] = test system: A. fumigatus MMX 5280 ATCC MYA-3626; test: MIC/MEC assay (CLSI microdilution); format: cell-based, Aspergillus fumigatus; settings: Aspergillus fumigatus, 48 h
Method in brief: as §1

[9] = test system: C. albicans MMX 2000 ATCC 10231; test: MIC assay (CLSI microdilution); format: cell-based; settings: Candida albicans, ATCC10231, Without Tween-80; read-out: MIC
A. fumigates = test: Antifungal activity of separated positional isomers of Compound X; format: cell-based
Experimental: Test Procedure. The MIC assay method followed the procedure described by CLSI (1, 2) and employed automated liquid handlers to conduct serial dilutions and liquid transfers. Automated liquid handlers included the Multidrop 384 (Labsystems, Helsinki, Finland), Biomek 2000 and Biomek FX (Beckman Coulter, Fullerton Calif.). The wells in columns 2-12 in standard 96-well microdilution plates (Costar 3795) were filled with 150 μl of the appropriate diluent (95% EtOH for investigational compounds, 100% DMSO for amphotericin B). These assay plates would become the ‘mother plates’ from which the assay ‘daughter plates’ would be prepared. The drugs (300 μL at 40× the desired top concentration in the test plates) were dispensed into the appropriate well in Column 1 of the mother plates. The Biomek 2000 was used to make two-fold serial dilutions through Column 11 in the “mother plate”. The wells of Column 12 contained no drug and served as the organism growth control wells.
The microplates were viewed from the bottom using a plate viewer. […] The MIC was read and recorded as the lowest concentration of drug that inhibited visible growth of the organism. MECs were read where the growth shifted to a small, rounded, compact hyphal form as compared to the hyphal growth seen in the growth control well. […]

[10] = RPMI plus 0.002% Tween-80, read-out: MIC
[11] = RPMI plus 0.002% Tween-80, read-out: MEC

SMILES: CC[C@H](C)[C@@H]1NC(=O)[C@@H]2CCCN2C(=O)[C@H](Cc2cccc(-c3cccc(N4CCN(C)CC4)n3)c2)N(C)C(=O)[C@H](Cc2ccccc2)NC(=O)[C@H](C(C)C)N(C)C(=O)[C@@H]([C@@H](C)CC)OC(=O)[C@H](C(C)(C)O)N(C)C(=O)[C@H](CC(C)C)NC(=O)[C@H](C(C)C)N(C)C1=O [Compound 33] (cyclo(F[X9]PI[NMeV]L[NMeVal(β-OH)][Hmp(2R,3S)][NMeV]))
- MIC [1]: 4 ng/mL
- MIC [2]: 0.06 µg/mL
- MIC ([3]; ATCC22019, RPMI plus 0.002% Tween-80): 0.03 µg/mL
- MIC ([3]; ATCC22019, Without Tween-80): 0.5 µg/mL (≈ 0.392 µM)
- minimal effective concentration (A. flavus MMX 5948; RPMI plus 0.002% Tween-80): 0.12 µg/mL
- MIC (A. flavus MMX 5948; [10]): 0.5 µg/mL
- minimal effective concentration (A. fumigatus MMX 5944; RPMI plus 0.002% Tween-80): 0.5 µg/mL
- MIC (A. fumigatus MMX 5944; [10]): 0.5 µg/mL
- MIC ([4]; 48 h, RPMI plus 0.002% Tween-80, read-out: MIC): 0.12 µg/mL
- minimal effective concentration ([4]; RPMI plus 0.002% Tween-80, 48 hr): 0.03 µg/mL
- minimal effective concentration [5, 11]: 0.06 µg/mL
- MIC [5, 10]: 0.12 µg/mL
- minimal effective concentration ([6]; RPMI plus 0.002% Tween-80): 0.06 µg/mL
- MIC [6, 10]: 0.06 µg/mL
- minimal effective concentration [7, 11]: 0.03 µg/mL
- MIC [7, 10]: 0.03 µg/mL
- minimal effective concentration [8, 11]: 0.015 µg/mL
- MIC [8, 10]: 0.25 µg/mL
- minimal effective concentration ([8]; Without Tween-80, read-out: MEC): 0.5 µg/mL
- MIC ([8]; Without Tween-80, read-out: MIC): 1 µg/mL (≈ 0.783 µM)
- MIC [9]: 0.5 µg/mL (≈ 0.392 µM)

SMILES: CCC(C)[C@@H]1NC(=O)[C@@H]2CCCN2C(=O)[C@H](Cc2cccc(-c3cccnc3)c2)N(C)C(=O)[C@H](Cc2ccccc2)NC(=O)[C@H](C(C)C)N(C)C(=O)[C@@H](C(C)CC)OC(=O)C(C(C)(C)O)N(C)C(=O)C(CC(C)C)NC(=O)[C@H](C(C)C)N(C)C1=O (stereo partly drawn) [meta-substituted positional isomer of Compound X] (cyclo(F[NMePhe(3-(3-pyridyl))]P[Ile(3ξ)][NMeV][ξL][ξNMeVal(3-OH)][X6][NMeV]))
- MIC (A. fumigates): 0.6 µg/mL (≈ 0.509 µM)

SMILES: CCC(C)[C@@H]1NC(=O)[C@@H]2CCCN2C(=O)[C@H](Cc2ccc(-c3cccnc3)cc2)N(C)C(=O)[C@H](Cc2ccccc2)NC(=O)[C@H](C(C)C)N(C)C(=O)[C@@H](C(C)CC)OC(=O)C(C(C)(C)O)N(C)C(=O)C(CC(C)C)NC(=O)[C@H](C(C)C)N(C)C1=O (stereo partly drawn) [para substituted positional isomer of Compound X] (cyclo(F[X36]P[Ile(3ξ)][NMeV][ξL][ξNMeVal(3-OH)][X6][NMeV]))
- MIC (A. fumigates): > 2.5 µg/mL
